Reference: patent publication US7273878B2, “Difluoroalkene derivative, pest control agent containing the same, and intermediate therefor” (Kumiai Chemical Industry Co., Ltd., priority 2001, dated 2007)

Key:
Format in all cases: in vivo
Tetranychus urticae [1] = assay: Prevention/extermination test against Tetranychus urticae (0.8 ppm); settings: 312 h, 0.8 ppm active ingredient, soybean seedlings inoculated with imago, 25° C., after 13 days, read-out: prevention/extermination titer
Experimental: (§1) The wettable powder prepared according to the above Preparation Example 2 was diluted with water to a concentration of 500 ppm as a concentration of active ingredient. Soybean seedlings which had previously been inoculated with the imago of Tetranychus urticae were soaked in the test solution, then air dried. The treated soybean seedlings were left at the constant temperature of 25° C. After 13 days from the treatment, the number of surviving mites was counted, and the prevention/extermination titer was calculated according to the formula 2 below.
The wettable powder prepared according to the above Preparation Example 2 was diluted with water to a concentration of 0.8 ppm as a concentration of active ingredient. The same experiment as in Test Example 2 was carried out, and the prevention/extermination titer was calculated according to the formula 2.
(§2) In this test, representative compounds having the acaricidal effect with more than 90 of prevention/extermination titer include compound No. 63, 93, 77, 81, 105, 169, 190, 196 and 208.

ddy mouse (Slc:ddy) = assay: Oral acute toxicity test; parameters: key: 0/3 means none of 3 recipient animals died; 1/3 means one out of 3 recipient animals died; 2/3 means 2 out of 3 recipient animals died; 3/3 means all 3 recipient animals died; settings: oral 30 mg/kg, mortality investigated for 7 days; for Test result Female (mortality, animals died out of 3): female ddy mouse; for Test result Male (mortality, animals died out of 3): male ddy mouse
Experimental: Oral acute toxicity test was conducted according to the method described in the guideline in “Guideline for the Preparation of Test Report on the Toxicity Studies”, published by the Ministry of Agriculture, Forestry and Fisheries of Japan. Experimental animals, 3 each of male and female of 7 weeks aged ddy mouse (Slc:ddy), were obtained from SLC Japan Inc. The compounds of the present invention and the reference substances were suspended in 0.5% sodium carboxymethyl cellulose or corn oil to give a 30 (mg/kg) equivalent amount for a dosage of 10 ml per 1 kg of body weight. The suspensions were inoculated using a sonde directly into the stomach of test animals which were fasted for 3 hours before inoculation. The test animals were fasted for additional 3 hours after inoculation, and the mortality of the inoculated animal was investigated for 7 days. In this table, 0/3 means none of 3 recipient animals died, 1/3 means one out of 3 recipient animals died, 2/3 means 2 out of 3 recipient animals died, 3/3 means all 3 recipient animals died.

Tetranychus urticae [2] = assay: Prevention/extermination test against Tetranychus urticae (500 ppm); settings: 312 h, 500 ppm active ingredient, soybean seedlings inoculated with imago, 25° C., after 13 days, read-out: prevention/extermination titer (preventive titer)
Experimental: as §1, §2

Nilaparvata lugenis = assay: Insecticidal test for Nilaparvata lugenis; settings: 144 h, 500 ppm active ingredient (wettable powder), 4-instar larvae on germinated rice paddy, 25° C., after 6 days, read-out: mortality rate
Experimental: The wettable powder prepared according to the above Preparation Example 2 was diluted with water to a concentration of 500 ppm as a concentration of active ingredient. After soaking the germinated rice paddy in the test solution, the paddy was transferred into a 60 ml volume of plastic cup. Ten (10) heads of 4-instar larvae of Nilaparvata lugenis were inoculated on the paddy and capped, then left at the constant temperature of 25° C. After 6 days from the inoculation, the number of surviving insects was counted, and mortality rate of the insect was calculated according to the following formula 1. mortality rate (%)=[(10−number of surviving insect in the test field)/10]×100 (1)

SMILES | pest or weed control at 0.8 ppm (Tetranychus urticae [1]) [%] | pest or weed control at 500 ppm (Tetranychus urticae [2]) [%] | further results
CCCCOc1ncc(C(=O)OCCC(C)=C(F)F)c(C)n1 [Compound 105, 4,4-difluoro-3-methyl-3-butenyl 2-butoxy-4-methyl-pyrimidine-5-carboxylate] | > 90 |  | Test result Female (mortality, animals died out of 3) (ddy mouse (Slc:ddy)): 0/3; Test result Male (mortality, animals died out of 3) (ddy mouse (Slc:ddy)): 0/3
CCN(c1ccc(C)cc1)c1nc(C)c(C(=O)OCCC(C)=C(F)F)s1 [Compound 185, 4,4-difluoro-3-methyl-3-butenyl 2-(N-ethyl-N-4-tolylamino)-4-methylthiazole-5-carboxylate] |  | > 90 | 
CCCCOc1ccc(C(=O)OCCC(C)=C(F)F)cn1 [Compound 77, 4,4-difluoro-3-methyl-3-butenyl 6-butoxynicotinate] | > 90 |  | Test result Female (mortality, animals died out of 3) (ddy mouse (Slc:ddy)): 0/3; Test result Male (mortality, animals died out of 3) (ddy mouse (Slc:ddy)): 0/3
CC(CCCCOC(=O)c1n[nH]c2ccccc12)=C(F)F [Compound 33, 6,6-difluoro-5-methyl-5-hexenyl 1H-indazole-3-carboxylate] |  | > 90 | mortality at 500 ppm (Nilaparvata lugenis): ≥ 90%
CC(CCOC(=O)c1sc(C2CCCCC2)nc1C)=C(F)F [Compound 169, 4,4-difluoro-3-methyl-3-butenyl 2-cyclohexyl-4-methylthiazole-5-carboxylate] | > 90 |  | mortality at 500 ppm (Nilaparvata lugenis): ≥ 90%
CC(CCCCOC(=O)c1ccc2nsnc2c1)=C(F)F [Compound 42, 6,6-difluoro-5-methyl-5-hexenyl benzo[1,2,5]-thiadiazole-5-carboxylate] |  | > 90 | 
CCCCCc1cc(C(=O)OCCC(C)=C(F)F)n(C)n1 [Compound 208, 4,4-difluoro-3-methyl-3-butenyl 2-methyl-5-pentyl-2H-pyrazole-3-carboxylate] | > 90 |  | 
CC(CCOC(=O)c1cnc(-c2ccccc2)s1)=C(F)F [Compound 190, 4,4-difluoro-3-methyl-3-butenyl 2-phenylthiazole-5-carboxylate] | > 90 |  | 
CCCCn1ncc(C(=O)OCCC(C)=C(F)F)c1C [Compound 203, 4,4-difluoro-3-methyl-3-butenyl 1-butyl-5-methyl-1H-pyrazole-4-carboxylate] |  | > 90 | 
CC(CCCCOC(=O)c1c[nH]c2ccccc12)=C(F)F [Compound 13, 6,6-difluoro-5-methyl-5-hexenyl 1H-indole-3-carboxylate] |  | > 90 | 
CC(CCOC(=O)c1sc(-c2ccccc2)nc1C)=C(F)F [Compound 63, 4,4-difluoro-3-methyl-3-butenyl 4-methyl-2-phenyl-thiazole-5-carboxylate] | > 90 |  | Test result Female (mortality, animals died out of 3) (ddy mouse (Slc:ddy)): 0/3; Test result Male (mortality, animals died out of 3) (ddy mouse (Slc:ddy)): 0/3
CC(CCOC(=O)c1cn(-c2ccccc2)nc1C)=C(F)F [Compound 196, 4,4-difluoro-3-methyl-3-butenyl 3-methyl-1-phenyl-1H-pyrazole-4-carboxylate] | > 90 |  | 
CC(CCOC(=O)c1ccc(OC2CCCC2)nc1)=C(F)F [Compound 81, 4,4-difluoro-3-methyl-3-butenyl 6-cyclopentyloxy-nicotinate] | > 90 |  | Test result Female (mortality, animals died out of 3) (ddy mouse (Slc:ddy)): 0/3; Test result Male (mortality, animals died out of 3) (ddy mouse (Slc:ddy)): 0/3
CC(CCCCOC(=O)c1ccc2nn(CCCCC(C)=C(F)F)nc2c1)=C(F)F [Compound 31, 6,6-difluoro-5-methyl-5-hexenyl 2-(6,6-difluoro-5-methyl-5-hexenyl)-2H-benzotriazole-5-carboxylate] |  | > 90 | 
CC(CCCCOC(=O)c1c(-c2ccccc2)noc1C)=C(F)F [Compound 12, 6,6-difluoro-5-methyl-5-hexenyl 5-methyl-3-phenyl-isoxazole-4-carboxylate] |  | > 90 | 
CC(CCOC(=O)c1cnc(-c2ccccc2)nc1C)=C(F)F [Compound 93, 4,4-difluoro-3-methyl-3-butenyl 4-methyl-2-phenyl-pyrimidine-5-carboxylate] | > 90 |  | Test result Female (mortality, animals died out of 3) (ddy mouse (Slc:ddy)): 0/3; Test result Male (mortality, animals died out of 3) (ddy mouse (Slc:ddy)): 0/3
CC(CCCCOC(=O)c1ccc2c(c1)ncn2CCCCC(C)=C(F)F)=C(F)F [Compound 35, 6,6-difluoro-5-methyl-5-hexenyl 1-(6,6-difluoro-5-methyl-5-hexenyl)-1H-benzoimidazole-5-carboxylate] |  | > 90 | 
CC(CCCCOC(=O)c1cc2ccccc2cn1)=C(F)F [Compound 27, 6,6-difluoro-5-methyl-5-hexenyl isoquinoline-3-carboxylate] |  | > 90 | 
CC(CCCCOC(=O)c1cc2ccccc2o1)=C(F)F [Compound 7, 6,6-difluoro-5-methyl-5-hexenyl benzo[b]furan-2-carboxylate] |  | > 90 | 
CC(CCCCOC(=O)c1cnnc2ccccc12)=C(F)F [Compound 37, 6,6-difluoro-5-methyl-5-hexenyl cinnoline-4-carboxylate] |  | > 90 | 
CC(CCCCOC(=O)c1cnc2ccccc2n1)=C(F)F [Compound 32, 6,6-difluoro-5-methyl-5-hexenyl quinoxaline-2-carboxylate] |  | > 90 | mortality at 500 ppm (Nilaparvata lugenis): ≥ 90%
CC(CCOC(=O)c1cc(-c2ccccc2)n(C)n1)=C(F)F [Compound 194, 4,4-difluoro-3-methyl-3-butenyl 1-methyl-5-phenyl-1H-pyrazole-3-carboxylate] |  | > 90 | 
